Measurements: ChEMBL document CHEMBL1142271, “New fused benzazepine as selective D3 receptor antagonists. Synthesis and biological evaluation. Part one: [h]-fused tricyclic systems” (Bioorg Med Chem Lett, 2008)

Experiments:
Assay type in all cases: ADME, organism-based
[1] = Blood clearance in rat; settings: whole blood
[2] = Half life in rat; settings: in vivo
[3] = Volume of distribution in rat; settings: in vivo
[4] = Oral bioavailability in rat; settings: in vivo
[5] = Ratio of drug level brain to blood in iv dosed rat after 1 hr; settings: read-out: BBR

Row | Compound | clearance [1] | half-life [2] | Vd [3] | bioavailability [4] | Kp at 1 h [5]
1 | CCc1nc2cc3c(cc2o1)CCN(CCCSc1nnc(-c2ccc(C(F)(F)F)cc2)n1C)CC3 | 48 mL/min/kg | 1.1 h | 3.4 L/kg | 17% | 3.1
2 | Cc1ccc2c(-c3nnc(SCCCN4CCc5cc6nc(CC7CC7)oc6cc5CC4)n3C)cccc2n1 | 50 mL/min/kg | – | 4.3 L/kg | 25% | –
3 | CCCc1nc2cc3c(cc2o1)CCN(CCCSc1nnc(-c2cccc4nc(C)ccc24)n1C)CC3 | 62 mL/min/kg | – | – | 6% | –
4 | Cc1ccc2c(-c3nnc(SCCCN4CCc5cc6c(cc5CC4)C(=O)N(C(C)C)C6)n3C)cccc2n1 | 36 mL/min/kg | 1.5 h | 3.5 L/kg | 10% | 0.2
5 | Cc1ccc2c(-c3nnc(SCCCN4CCc5cc6nc(N7CCCCC7)oc6cc5CC4)n3C)cccc2n1 | 76 mL/min/kg | – | – | 3% | 5.1
6 | Cc1ccc2c(-c3nnc(SCCCN4CCc5cc6c(cc5CC4)N(S(C)(=O)=O)CCO6)n3C)cccc2n1 | 32 mL/min/kg | 1.2 h | 2.4 L/kg | – | 0.2
7 | Cc1ccc2c(-c3nnc(SCCCN4CCc5cc6nc(C)oc6cc5CC4)n3C)cccc2n1 | 47 mL/min/kg | 1.7 h | 4.31 L/kg | 34% | 5.4
8 | Cc1ccc2c(-c3nnc(SCCCN4CCc5cc6nc(C)sc6cc5CC4)n3C)cccc2n1 | 34 mL/min/kg | 2.2 h | 4.3 L/kg | 25% | 4.4
9 | Cc1ncoc1-c1nnc(SCCCN2CCc3cc4nc(CC5CC5)oc4cc3CC2)n1C | 26 mL/min/kg | – | 1.7 L/kg | 32% | –

Continued, values first:

Row | clearance [1] | half-life [2] | Vd [3] | bioavailability [4] | Kp at 1 h [5] | Compound
10 | 29 mL/min/kg | 1.6 h | 2.8 L/kg | 45% | 1.1 | Cc1ccc2c(-c3nnc(SCCCN4CCc5cc6nc(N(C)C)oc6cc5CC4)n3C)cccc2n1
11 | 40 mL/min/kg | 1.3 h | 3.3 L/kg | 22% | 7.7 | Cc1ccc2c(-c3nnc(SCCCN4CCc5cc6onc(C)c6cc5CC4)n3C)cccc2n1
12 | 81 mL/min/kg | – | – | – | – | Cc1ccc2c(-c3nnc(SCCCN4CCc5cc6nc(C(C)C)oc6cc5CC4)n3C)cccc2n1
13 | 137 mL/min/kg | – | – | – | – | Cc1ccc2c(-c3nnc(SCCCN4CCc5cc6nc(C(C)(C)C)oc6cc5CC4)n3C)cccc2n1
14 | 57 mL/min/kg | 1.6 h | 5.1 L/kg | 31% | – | CCc1nc2cc3c(cc2o1)CCN(CCCSc1nnc(-c2cccc4nc(C)ccc24)n1C)CC3
15 | 20 mL/min/kg | 3.3 h | 5 L/kg | 31% | 2.8 | Cc1ccc2c(-c3nnc(SCCCN4CCc5cc6nc(C(F)(F)F)oc6cc5CC4)n3C)cccc2n1
16 | 152 mL/min/kg | – | – | – | – | Cc1ncoc1-c1nnc(SCCCN2CCc3cc4nc(C(C)C)oc4cc3CC2)n1C
17 | 62 mL/min/kg | 1.5 h | 5.4 L/kg | 17% | 2.9 | Cc1nc2cc3c(cc2o1)CCN(CCCSc1nnc(-c2ccc(C(F)(F)F)cc2)n1C)CC3
